In brackets after ≈: the same amount, converted by molar mass. Where two headings read alike, the source gives them in different places.
What was measured:
Assay type in all cases: cell-based
[1] = system: Acinetobacter baumannii ATCC19606; assay: MIC, micro-broth dilution method; conditions: for MIC: Acinetobacter baumannii ATCC19606, 37° C., 20-22 h, read-out: Minimum inhibitory concentration; for inhibition compared with tiamulin: Acinetobacter baumannii, statement in words from Table 1
Description: (§1) The minimum inhibitory concentration (MIC) of pleuromutilin cinnamate easters and their starting materials was tested by a micro-broth dilution method, with retamoline, vornimulin and tiamulin as positive controls.
(§2) The experimental strains included Gram-positive bacteria: Methicillin-sensitive Staphylococcus epidermidis ATCC12228, Staphylococcus aureus ATCC29213 and ATCC25923, and Methicillin-resistant Staphylococcus aureus ATCC33591; Gram-negative bacteria: Acinetobacter baumannii ATCC19606 and E. coli Bacillus ATCC25922 (the strains used were from the American type culture collection (ATCC)).

[2] = system: Escherichia coli ATCC25922; assay: MIC, micro-broth dilution method; conditions: Escherichia coli ATCC25922; 37° C., 20-22 h; read-out: Minimum inhibitory concentration
Description: as §1, §2

[3] = system: Methicillin-resistant Staphylococcus aureus ATCC33591; assay: MIC, micro-broth dilution method; conditions: Methicillin-resistant Staphylococcus aureus ATCC33591; 37° C., 20-22 h; read-out: Minimum inhibitory concentration
Description: as §1, §2

[4] = system: Methicillin-sensitive Staphylococcus epidermidis ATCC12228; assay: MIC, micro-broth dilution method; conditions: for MIC: Methicillin-sensitive Staphylococcus epidermidis ATCC12228, 37° C., 20-22 h, read-out: Minimum inhibitory concentration; for inhibitory effect compared with the three tested positive controls: methicillin-sensitive Staphylococcus epidermidis, statement in words from Table 1
Description: as §1, §2

[5] = system: Staphylococcus aureus ATCC25923; assay: MIC, micro-broth dilution method; conditions: Staphylococcus aureus ATCC25923; 37° C., 20-22 h; read-out: Minimum inhibitory concentration
Description: as §1, §2

[6] = system: Staphylococcus aureus ATCC29213; assay: MIC, micro-broth dilution method; conditions: Staphylococcus aureus ATCC29213; 37° C., 20-22 h; read-out: Minimum inhibitory concentration
Description: as §1, §2

[7] = In vitro cytotoxicity, CCK-8 method; conditions: human, read-out: median inhibitory concentration (IC50), cytotoxicity
Description: The in vitro cytotoxicity of pleuromutilin easters was determined by a CCK-8 method (the kit used was purchased from Shanghai Xige Biotechnology Co., Ltd.). Take healthy HepG2, HEK293 and A549 cell culture fluids (the cells used were from the American type culture collection (ATCC), and the used cell culture fluids were purchased from Thermo Fisher Scientific (China) Co., Ltd.), inoculate in a sterile 96-well cell culture plate, 180 μL/well, ensure that the number of cells is 1*10^4/well, place in a 37° C. CO2 incubator with a volume fraction of 5%, and culture for 24 h until the cells completely adhered. Add the test and control solutions, 20 µL per well, set 6 duplicate wells in parallel, and incubate at 37° C. in a CO2 incubator with a volume fraction of 5% at 37° C. for 24 h, and observe the cells under a microscope. Add 20 μL of 5 g/L CCK-8 solution to each well, and continue to culture for 4 h. The culture was terminated, the culture medium in the wells was gently aspirated, 100 μL of dimethyl sulfoxide was added to each well, and the wells were shaken at low speed for 10 min on a shaker to fully dissolve the crystals. The absorbance value was measured, and the half inhibitory concentration (IC50) was then calculated. The cytotoxicity to HepG2, HEK293 and A549 cells was evaluated according to the half inhibitory concentration (IC50).

[8] = system: the different bacteria tested; assay: MIC, micro-broth dilution method, overall comparison over all strains; conditions: statement in words from Table 1
Description: as §1, §2

| Compound | MIC [1] | MIC [2] | MIC [3] | MIC [4] | inhibitory effect compared with the three tested positive controls [4] | MIC [5] | MIC [6] | IC50 at 24 h ([7]; A549 cells) | IC50 at 24 h ([7]; HEK293 cells) | IC50 at 24 h ([7]; HepG2 cells) | inhibition compared with tiamulin [1] | inhibitory activity compared with the three tested positive controls [8] |
| --- | --- | --- | --- | --- | --- | --- | --- | --- | --- | --- | --- | --- |
| C=C[C@]1(C)C[C@@H](OC(=O)COC(=O)/C=C/c2cccc(C#N)c2)[C@]2(C)[C@H](C)CC[C@]3(CCC(=O)[C@H]32)[C@@H](C)[C@@H]1O [Compound 5, (E)-2-(((3aR,4R,5R,8S,9R,12R)-8-hydroxy-4,7,9,12-tetramethyl-3-oxo-7-vinyldecahydro-4,9a-propanocyclopenta[8]annulen-5-yl)oxy)-2-oxoethyl 3-(3-cyanophenyl)acrylate] | 128 mg/L (≈ 240 µM) | 64 mg/L (≈ 120 µM) | 16 mg/L (≈ 30 µM) | 2 mg/L (≈ 3.75 µM) | better than that of the positive controls | 2 mg/L (≈ 3.75 µM) | 8 mg/L (≈ 15 µM) | > 200 µM | 29.2 µM | 78.5 µM |  |  |
| C=C[C@]1(C)C[C@@H](OC(=O)CSCCN(CC)CC)[C@]2(C)[C@H](C)CC[C@]3(CCC(=O)[C@H]32)[C@@H](C)[C@@H]1O [Tiamulin, reference compound] | 64 mg/L (≈ 130 µM) | 128 mg/L (≈ 259 µM) | 128 mg/L (≈ 259 µM) | 16 mg/L (≈ 32.4 µM) |  | 64 mg/L (≈ 130 µM) | 256 mg/L (≈ 518 µM) | > 200 µM | 84.9 µM | 27.1 µM |  |  |
| C=C[C@]1(C)C[C@@H](OC(=O)COC(=O)/C=C/c2ccc([N+](=O)[O-])cc2)[C@]2(C)[C@H](C)CC[C@]3(CCC(=O)[C@H]32)[C@@H](C)[C@@H]1O [Compound 1, (E)-2-(((3aR,4R,5R,8S,9R,12R)-8-hydroxy-4,7,9,12-tetramethyl-3-oxo-7-vinyldecahydro-4,9a-propanocyclopenta[8]annulen-5-yl)oxy)-2-oxoethyl 3-(4-nitrophenyl)acrylate] | 64 mg/L (≈ 116 µM) | 32 mg/L (≈ 57.8 µM) | 4 mg/L (≈ 7.22 µM) | 2 mg/L (≈ 3.61 µM) | better than that of the positive controls | 8 mg/L (≈ 14.4 µM) | 2 mg/L (≈ 3.61 µM) | > 200 µM | > 200 µM | > 200 µM | as much as tiamulin |  |
| C=C[C@]1(C)C[C@@H](OC(=O)COC(=O)/C=C/c2ccc(OC)cc2)[C@]2(C)[C@H](C)CC[C@]3(CCC(=O)[C@H]32)[C@@H](C)[C@@H]1O [Compound 4, (E)-2-(((3aR,4R,5R,8S,9R,12R)-8-hydroxy-4,7,9,12-tetramethyl-3-oxo-7-vinyldecahydro-4,9a-propanocyclopenta[8]annulen-5-yl)oxy)-2-oxoethyl 3-(4-methoxyphenyl)acrylate] | > 256 mg/L | 32 mg/L (≈ 59.4 µM) | 16 mg/L (≈ 29.7 µM) | 2 mg/L (≈ 3.71 µM) | better than that of the positive controls | 4 mg/L (≈ 7.43 µM) | 8 mg/L (≈ 14.9 µM) | 50.8 µM | 90.2 µM | 83.7 µM |  |  |
| C=C[C@]1(C)C[C@@H](OC(=O)COC(=O)/C=C/c2ccc(N(C)C)cc2)[C@]2(C)[C@H](C)CC[C@]3(CCC(=O)[C@H]32)[C@@H](C)[C@@H]1O [Compound 10, (E)-2-(((3aR,4R,5R,8S,9R,12R)-8-hydroxy-4,7,9,12-tetramethyl-3-oxo-7-vinyldecahydro-4,9a-propanocyclopenta[8]annulen-5-yl)oxy)-2-oxoethyl 3-(4-(dimethylamino)phenyl)acrylate] | 32 mg/L (≈ 58 µM) | 16 mg/L (≈ 29 µM) | 2 mg/L (≈ 3.63 µM) | 1 mg/L (≈ 1.81 µM) | better than that of the positive controls | 1 mg/L (≈ 1.81 µM) | 2 mg/L (≈ 3.63 µM) | > 200 µM | 34.6 µM | > 200 µM | as much as tiamulin | better or equal to that of the three tested positive controls |
| C=C[C@]1(C)C[C@@H](OC(=O)COC(=O)/C=C/c2ccccc2)[C@]2(C)[C@H](C)CC[C@]3(CCC(=O)[C@H]32)[C@@H](C)[C@@H]1O [Compound 3, 2-(((3aR,4R,5R,8S,9R,12R)-8-hydroxy-4,7,9,12-tetramethyl-3-oxo-7-vinyldecahydro-4,9a-propanocyclopenta[8]annulen-5-yl)oxy)-2-oxoethyl cinnamate] | > 256 mg/L | 128 mg/L (≈ 252 µM) | 32 mg/L (≈ 62.9 µM) | 16 mg/L (≈ 31.5 µM) |  | 4 mg/L (≈ 7.86 µM) | 16 mg/L (≈ 31.5 µM) |  |  |  |  |  |
| C=C[C@]1(C)C[C@@H](OC(=O)COC(=O)/C=C/c2cc(Br)ccc2F)[C@]2(C)[C@H](C)CC[C@]3(CCC(=O)[C@H]32)[C@@H](C)[C@@H]1O [Compound 9, (E)-2-(((3aR,4R,5R,8S,9R,12R)-8-hydroxy-4,7,9,12-tetramethyl-3-oxo-7-vinyldecahydro-4,9a-propanocyclopenta[8]annulen-5-yl)oxy)-2-oxoethyl 3-(5-bromo-2-fluorophenyl)acrylate] | 128 mg/L (≈ 211 µM) | 64 mg/L (≈ 106 µM) | 64 mg/L (≈ 106 µM) | 64 mg/L (≈ 106 µM) |  | 16 mg/L (≈ 26.4 µM) | 32 mg/L (≈ 52.8 µM) |  |  |  |  |  |
